According to patent US20260183350A1, “ANTIBIOTIC-RESISTANT BACTERIA” (priority 2022, published 2026):

Assays:
[1] = test system: faecal microbiota; experiment: Faecal batch culture with antibiotics promoting CRE colonisation: 16S rRNA gene sequencing and qPCR; assay type: cell-based, human; settings: 11 healthy donors, antibiotic at faecal concentration, 24 hours anaerobic
Experimental: (§1) The inventors performed faecal culture experiments to measure the effects of eight broad-spectrum antibiotics on the faecal microbiota collected from 11 healthy human donors. Faecal culture experiments were performed under anaerobic conditions using a complex gut growth medium that was designed to mimic the nutrients found in the human distal gut (McDonald, J. A. et al. Evaluation of microbial community reproducibility, stability and composition in a human distal gut chemostat model. J. Microbiol. Methods 95, 167-174 (2013)). […] Moon, Y. S., Chung, K. C. & Gill, M. A. Pharmacokinetics of meropenem in animals, healthy volunteers, and patients. Clin Infect Dis 24, S249-S255 (1997). Kager, L., Brismar, B., Malmborg, A. S. & Nord, C. E. Imipenem concentrations in colorectal surgery and impact on the colonic microflora. Antimicrob Agents Chemother 33, 204-8 (1989). Pletz, M. et al. Ertapenem pharmacokinetics and impact on intestinal microflora, in comparison to those of ceftriaxone, after multiple dosing in male and female volunteers. Antimicrob Agents Chemother 48, 3765-72 (2004). Nord, C. E., Brismar, B., Kasholm-Tengve, B. & Tunevall, G. Effect of piperacillin/tazobactam treatment on human bowel microflora. J Antimicrob Chemother 31, 61-5 (1993). […] Antimicrob Agents Chemother 63, 2244 (2019). Pessôa de Menezes e Silva, C H. Elaboration and evaluation of a new screening medium for detection and presumptive identification of extended-spectrum beta-lactamase-producing organisms (ESBL). Braz J Microbiol 31, 271-274 (2000). Brismar, B., Edlund, C., Malmborg, A. S. & Nord, C. […] Antimicrob Agents Chemother 34, 481-3 (1990)). Cultures were incubated anaerobically at 37° C. for 24 hours. Samples were analysed by ^1H-NMR spectroscopy (for nutrient and metabolite profiling) and […] rRNA gene sequencing with 16S rRNA gene qPCR (for bacterial composition and biomass) (McDonald, J. A. K. et a/. Inhibiting Growth of Clostridioides difficile by Restoring Valerate, Produced by the Intestinal Microbiota. Gastroenterology 155, 1495-1507 (2018)).

[2] = test system: faecal microbiota; experiment: Faecal batch culture with antibiotics promoting CRE colonisation: 1H-NMR of nutrients and metabolites; assay type: cell-based, human; settings: 11 healthy donors, antibiotic at faecal concentration, 24 hours anaerobic
Experimental: as §1
Supernatants were prepared from faeces by vortexing 300 mg of faeces in 900 μl of HPLC-grade water for 10 minutes at 3000 rpm followed by centrifugation at 17,000×g for 10 minutes at 4° C. Supernatants were prepared from faecal culture samples by centrifugation at 17,000×g for 10 minutes at 4° C. Supernatants were frozen at −80° C. until they were ready for analysis.
^1H-NMR spectroscopy was performed as previously described (McDonald, J. A. K. et al. Inhibiting Growth of Clostridioides difficile by Restoring Valerate, Produced by the Intestinal Microbiota. Gastroenterology 155, 1495-1507 (2018)). Briefly, sample supernatants were randomized and defrosted at room temperature for 1 hour. Sample supernatants were then centrifuged for 10 min at 17 000×g and 4° C. The pellet was discarded and 400 μl of supernatant was added to 250 μl NMR buffer (28.85 g Na2HPO4, 5.25 g NaH2PO4, 1 mM TSP, 3 mM NaN3, deuterium oxide to 1 L, pH 7.4). 600 μl of sample was used to fill each 5 mm NMR tube to be loaded into the SampleJet system.
^1H-NMR spectroscopy was performed using the Bruker AVANCE III HD 800 MHz spectrometer (Bruker Bio-Spin, Rheinstetten, Germany). 1D spectra (a standard NOESYGPPR1D pulse sequence (RD-90°-t1-90°-tm-90°-ACQ)) as well as 2D spectra (standard 2D JRESGPPRQF pulse sequence) were acquired. A recycle delay of 4 seconds and mixing time of 100 ms was used. The 90° pulse length was approximately 10 μs and 32 scans were recorded.
NMR spectra were imported into MATLAB r2019b (The Mathworks, USA) using an in-house script. Spectra were aligned and the water (4.6-5 ppm) and TSP (−0.2-0.2 ppm) peaks were cut. Compounds were identified by comparison to spectral databases in Chenomx NMR Suite (Chenomx, Canada). Representative peaks were integrated for quantification of compounds.

| Molecule | Change in abundance of bacterial families relative to antibiotic-naive faecal cultures [1] | Change in butyrate concentration in faecal cultures [2] |
| --- | --- | --- |
| CC(C)(O/N=C(\C(=O)N[C@@H]1C(=O)N2C(C(=O)[O-])=C(C[n+]3ccccc3)CS[C@H]12)c1csc(N)n1)C(=O)O [CAZ, ceftazidime] | decreased the abundance of Bifidobacteriaceae | increased |
| CO/N=C(\C(=O)N[C@@H]1C(=O)N2C(C(=O)O)=C(CSc3nc(=O)c(=O)[nH]n3C)CS[C@H]12)c1csc(N)n1 [CRO, ceftriaxone] | decreased the abundance of Bifidobacteriaceae | decreased |
| CO/N=C(\C(=O)N[C@@H]1C(=O)N2C(C(=O)O)=C(COC(C)=O)CS[C@H]12)c1csc(N)n1 [CTX, cefotaxime] | decreased the abundance of Bifidobacteriaceae | increased |
| piperacillin/tazobactam [TZP] | decreased the abundance of Bifidobacteriaceae and Bacteroidaceae | decreased |
